Literature values, collected in patent US20040116351A1, “Method for enhancing the natural reward system for exercise” (FAST BALANCE, INC., priority 2002, published 2004).

Conditions: administered PEA

NCCc1ccccc1 [PEA, phenylethylamine]
Time PEA lasts in the body: ≤ 10 min
